Tests used:
Type in all cases: in vivo
[1] = test system: AC Metcalf spring barley (Hordeum vulgare); assay: Spring barley field trial 2011: emergence, vigor, tillering; conditions: for Barley Crop Vigor (1-5 scale): vigor scale of Example 3; for Barley Plant Tillers: 24 DAP
Procedure: A spring barley field trial was conducted to evaluate the effects of NPG on plant emergence and vigor in AC Metcalf spring barley (Hordeum vulgare) planted near Wetaskiwin, Alberta, Canada, in 2011. Seed treatments included an Untreated Control, 10^−7 M NPG seed coating, 10^−7 M NPG seed coating followed by an NPG foliar treatment (10^−7 M NPG+Foliar), 10^−6 M natural LCO, and 10^−6 M commercial LCO plus a commercial rhizobia inoculant (LCO+RI) applied as a seed coating. The natural LCO was provided by Dr. Don Smith (McGill University, Montreal, Canada) and prepared as described in Example 2.
Seed coating was performed by injecting 7 mL of aqueous NPG solution per 100 g barley seed into the coating machine followed by treatment and drying. […] Foliar NPG was applied 47 days after planting. Plants were sprayed using a four-nozzle hollow-cone boom and CO2 propellant at a speed of 10.8 km/h and 40 psi, with a mix size of 1.0 L and spray rate of 110 L/ha water volume. Seeds designated for use as the Untreated Control also received the fungicide maintenance treatment.
Treated seeds were sent to the DuPont Wetaskiwin, Alberta, Canada, Research Station and planted on May 19th in a loam composed of 29% sand, 46% silt and 25% clay and 4.8% organic matter. […] Barley was planted at a rate of 100 kg seeds/ha to a depth of 2.5 cm. Weeds were controlled using 60 grams ai/ha pinoxaden, 30 grams/ha thifensulfuron methyl, and 280 grams ai/ha 4-chloro-2-methylphenox acetic acid, 2-ethylhexyl ester. Adigor surfactant was used at a rate of 700 ml/hectare. All of the products used are considered industry standards and representative of what is used in commercial production.
The trial was conducted using a randomized complete block design with a plot size of 2 m by 6 m with 22.9 cm row spacing, 3.3 cm plant spacing and four replications. Height and yield data was not collected in this trial due to a large hailstorm on Jul. 18, 2011.
Crop vigor was observed 11 and 14 days DAP using the vigor scale described in Example 3 (Table 12).

[2] = test system: canola (Brassica napus) Pioneer hybrid 45H29; assay: Canola field trials 2011: early growth, days to maturity, height, yield; conditions: at plant maturity, averaged across three locations; NPG 10^−7 M, LCO/rhizobia at manufacturers' recommended rates
Procedure: Three canola (Brassica napus) field trials were conducted in the spring of 2011 to evaluate the effects of NPG on early growth, days to maturity, height and yield for Pioneer hybrid 45H29 planted at research sites near Carman, Neepawa, and Treherne (Manitoba, Canada) in 2011. Seed treatments included an Untreated Control, 10^−7 M NPG, and a mixture of a commercial LCO and rhizobia. An aqueous solution of NPG was applied at 0.25 L/100 kg seed by soaking the seeds in aqueous solutions of the respective treatments for 15 minutes followed by air drying on a tray. Untreated Control seeds were treated identically with the exception of being soaked in water without added NPG, LCO or rhizobia. The LCO/rhizobia mixture was applied to seeds at the manufacturers' recommended rates. […]
Early growth was scored on a 1-9 scale using a subjective evaluation of the ‘healthiness’ of plants and the soil surface area covered by their leaves when the plants are in the 4-6 leaf stage. […]
Days to maturity was measured from time of planting to physiological maturity, which was recorded in days from planting until the seeds in the pod, one third of the way up the main raceme, changed color to black in 50% of the plants in a given row or plot. […]
Plant height was measured at plant maturity. […]
Yield was measured in bushels per acre of mature seed. […]

corn seeds = assay: Petri dish seed germination assay, corn
Procedure: A series of Petri dish seed assays was conducted to evaluate the effects NPG on the seed germination rates of corn, soybean, and canola seeds subjected to cold stress, salt stress and non-stressed conditions (salt stress only for canola). Assays were performed with ten replications of ten seeds/plate (100 total seeds). NPG was applied to seeds at the specified concentrations prior to being placed in Petri plates. Seeds designated for Salt Stress Experiments 1 & 2 were placed in Petri dishes containing a 100 mM NaCl solution and incubated at 21° C.-22° C. in the dark. Cold stress Petri dishes were incubated at 15° C. in the dark. Untreated Controls were incubated at 21° C.-22° C. in the dark as were seeds utilized in the separately conducted non-stressed germination assays. Data was recorded as percent germination at designated times after plating. Statistical analyses were performed using one-way Anova and Kruskal-Wallis one-way analysis of variance on rank combined with Dunn's all pairwise multiple comparison procedure (α=0.05).

[3] = 10^−7M seed coating + Foliar, 11 DAP
[4] = 10^−7M seed coating + Foliar, 14 DAP

SMILES: CCCCCCC=CCCCCCCCC(=O)NC1C(OC)OC(CO)C(O)C1O [NPG, Methyl 2-deoxy-2-N-(hexadece-9,10-cis-eneoyl)-β-D-glucopyranoside]
- Barley Crop Emergence [1, 3]: 25a plants/m row
- Barley Crop Vigor (1-5 scale) [1, 3]: 3a
- Barley Crop Emergence [1, 4]: 31.8a plants/m row
- Barley Crop Vigor (1-5 scale) [1, 4]: 4a
- Barley Plant Tillers ([1]; 10^−7M seed coating + Foliar): 95a %
- Barley Crop Emergence ([1]; 10^−7M seed coating, 11 DAP): 22.5a plants/m row
- Barley Crop Vigor (1-5 scale) ([1]; 10^−7M seed coating, 11 DAP): 3a
- Barley Crop Emergence ([1]; 10^−7M seed coating, 14 DAP): 27.4a plants/m row
- Barley Crop Vigor (1-5 scale) ([1]; 10^−7M seed coating, 14 DAP): 4a
- Barley Plant Tillers ([1]; 10^−7M seed coating): 83a %
- Plant height [2]: 114.2 cm
- Corn Seed Germination (corn seeds; Cold Stress (15° C.), 10^−6M, 48 HAP): 13ab %
- Corn Seed Germination (corn seeds; Cold Stress (15° C.), 10^−6M, 56 HAP): 52a %
- Corn Seed Germination (corn seeds; Cold Stress (15° C.), 10^−6M, 65 HAP): 100%
- Corn Seed Germination (corn seeds; Cold Stress (15° C.), 10^−7M, 48 HAP): 20ab %
- Corn Seed Germination (corn seeds; Cold Stress (15° C.), 10^−7M, 56 HAP): 52a %
- Corn Seed Germination (corn seeds; Cold Stress (15° C.), 10^−7M, 65 HAP): 100%
- Corn Seed Germination (corn seeds; Non-Stressed, 10^−6M, 28 HAP): 34a %
- Corn Seed Germination (corn seeds; Non-Stressed, 10^−6M, 34 HAP): 80a %
- Corn Seed Germination (corn seeds; Non-Stressed, 10^−6M, 44 HAP): 100a %
- Corn Seed Germination (corn seeds; Salt Stress (100 mM NaCl) Experiment 2, 10^−6M, 32 HAP): 20b %
- Corn Seed Germination (corn seeds; Salt Stress (100 mM NaCl) Experiment 2, 10^−6M, 42 HAP): 90a %
- Corn Seed Germination (corn seeds; Salt Stress (100 mM NaCl) Experiment 2, 10^−7M, 32 HAP): 44a %
- Corn Seed Germination (corn seeds; Salt Stress (100 mM NaCl) Experiment 2, 10^−7M, 42 HAP): 87a %
